Results on six compounds are retold here after PMC3634465, “New Anti-Inflammatory Aromatic Components from Antrodia camphorata” (International Journal of Molecular Sciences, 2013).

≈ marks a conversion by molar mass, not a printed value.

As a reminder, the viability is a read-out of living cells in per cent, often relative to untreated cells. As usually defined, the IC50 is the point on the concentration scale where inhibition reaches its midpoint.

The nature of data set [1]: Cell viability (MTT) in the presence of LPS. Conditions: mouse, RAW264.7 macrophage cells, 100 ng/mL LPS, mean ± SD, read-out: Cell viability (% of control). Format: cell-based, murine. Here is the method:
(§1) A murine macrophage cell line, RAW264.7 (BCRC No. 60001), was purchased from the Bioresources Collection and Research Center (BCRC, Hsinchu, Taiwan) of the Food Industry Research and Development Institute (Hsinchu, Taiwan). Cells were cultured in plastic dishes containing Dulbecco’s Modified Eagle Medium (DMEM, Sigma, St. Louis, MO, USA) supplemented with 10% fetal bovine serum (FBS, Sigma) in a CO2 incubator (5% CO2 in air) at 37 °C and subcultured every 3 days at a dilution of 1:5 using 0.05% trypsin-0.02% EDTA in Ca^2+-, Mg^2+-free phosphate-buffered saline (DPBS).
Cells (2 × 10^5) were cultured in 96-well plate containing DMEM supplemented with 10% FBS for 1 day to become nearly confluent. Then, cells were cultured with compounds 1–5 in the presence of 100 ng/mL LPS (lipopolysaccharide) (Eschericha coli 026:B6; Sigma-Aldrich, St. Louis, Mo) for 24 h. After that, the cells were washed twice with DPBS and incubated with 100 μL of 0.5 mg/mL MTT for 2 h at 37 °C testing for cell viability. The medium was then discarded, and 100 μL dimethyl sulfoxide (DMSO) was added. After 30-min incubation, absorbance at 570 nm was read using a microplate reader (Molecular Devices, Sunnyvale, CA, USA).

For data set [2], the system named is LPS-induced NO production in RAW264.7 macrophages. The data set is described as follows: LPS-induced NO production in macrophages (nitrite, Griess reaction). To be noted: LPS 100 ng/mL, 24 h; for IC50: Mus musculus, RAW264.7, non-linear regression, read-out: IC50 of inhibition of LPS-induced NO production; for NO level: LPS alone 25.3 ± 3.0, control 2.5 ± 0.2. Format: cell-based, murine. Here is the method:
as §1
NO production was indirectly assessed by measuring the nitrite levels in the cultured media and serum determined by a colorimetric method based on the Griess reaction. The cells were incubated with different concentrations of samples in the presence of LPS (100 ng/mL) at 37 °C for 24 h. Then, cells were dispensed into 96-well plates, and 100 μL of each supernatant was mixed with the same volume of Griess reagent (1% sulfanilamide, 0.1% naphthyl ethylenediamine dihydrochloride and 5% phosphoric acid) and incubated at room temperature for 10 min; the absorbance was measured at 540 nm with a Micro-Reader (Molecular Devices).
IC50 values were estimated using a non-linear regression algorithm (Sigma Plot 8.0; SPSS Inc., Chicago, IL, USA). Statistical evaluation was carried out by one-way analysis of variance (ANOVA, followed by Scheffe’s multiple range tests).
For orientation: Nitrite, measured by Griess reagent, commonly stands in for NO production.

Consider `COc1c(C)c(-c2c(C)c(OC)c(O)c3c2OCO3)c2c(c1O)OCO2` [Compound 3, 4,4′-dihydroxy-3,3′-dimethoxy-2,2′-dimethyl-5,6,5′,6′-bimethylenedioxybiphenyl], for which the viability at 24 h, 3.12 μg/mL in data set [1] (dose 3.12 μg/mL) is 95.1 ± 2.9%. Further, the viability at 24 h, 6.25 μg/mL in data set [1] (dose 6.25 μg/mL) was found to be 93.1 ± 2.7%. Moreover, in data set [1] (dose 12.5 μg/mL), the viability at 24 h, 12.5 μg/mL came out at 93 ± 2.6%. Moreover, in data set [1], the viability at 24 h, 25 μg/mL amounted to 91 ± 7.7%. Further, in data set [1], the viability at 24 h, 50 μg/mL was determined as 64.8 ± 2.2%. Moreover, the IC50 in data set [2] was determined as 18.8 ± 0.6 µg/mL (≈ 51.9 µM). The NO level in data set [2] (dose 3.12 μg/mL) amounted to 13.7 ± 0.1 µM; in data set [2] (dose 6.25 μg/mL) it was 13.4 ± 0.4 µM; in data set [2] (dose 12.5 μg/mL), 13.2 ± 0.1 µM; in data set [2] (dose 25 μg/mL), 12.1 ± 0.6 µM.
Regarding `C=C(C)c1c(OC)c(O)c(C)c2c1OCO2` [Compound 1, 3-isopropenyl-2-methoxy-6-methyl-4,5-methylenedioxyphenol], in data set [1], the viability at 24 h, 0.312 μg/mL amounted to 92 ± 3.3%; the viability at 24 h, 0.625 μg/mL came out at 91 ± 3.7%; the viability at 24 h, 1.25 μg/mL was determined as 90.4 ± 2.4%; the viability at 24 h, 2.5 μg/mL is 87.3 ± 2.3%. For the same compound, in data set [1], the viability at 24 h, 5 μg/mL was 65.5 ± 1.7%. Also, the IC50 in data set [2] is 1.8 ± 0.2 µg/mL (≈ 8.1 µM). The compound also displayed an NO level in data set [2] (dose 0.312 μg/mL) of 14.5 ± 2.2 µM. The same compound displayed an NO level in data set [2] (dose 0.625 μg/mL) of 14.1 ± 1.5 µM. Also, in data set [2] (dose 1.25 μg/mL), the NO level was 13.0 ± 1.5 µM. The same compound came in with an NO level in data set [2] (dose 2.5 μg/mL) of 12.0 ± 1.7 µM.
Consider `COc1c(C)cc(O)c2c1OCO2` [Compound 5, 2,3-methylenedioxy-4-methoxy-5-methylphenol], for which the viability at 24 h, 0.312 μg/mL in data set [1] turned out to be 93.8 ± 2.9%. In addition, the viability at 24 h, 0.625 μg/mL in data set [1] is 88.5 ± 1.5%. The viability at 24 h, 1.25 μg/mL in data set [1] is 85 ± 2.9%. In addition, the viability at 24 h, 2.5 μg/mL in data set [1] turned out to be 83.8 ± 1.9%. Further, the viability at 24 h, 5 μg/mL in data set [1] amounted to 82.4 ± 2.7%. Besides, the IC50 in data set [2] amounted to 0.8 ± 0.3 µg/mL (≈ 4.39 µM). Also, the NO level in data set [2] (dose 0.312 μg/mL) was 15.2 ± 1.4 µM; in data set [2] (dose 0.625 μg/mL), 12.8 ± 1.9 µM; in data set [2] (dose 1.25 μg/mL), 12.1 ± 1.6 µM; in data set [2] (dose 2.5 μg/mL), 10.4 ± 1.3 µM; in data set [2] (dose 5 μg/mL), 10.0 ± 2.2 µM.
On to `COc1ccc2c(c1)c(CC(=O)O)c(C)n2C(=O)c1ccc(Cl)cc1` [Indomethacin, indomethacin, reference compound], for which, in data set [1], the viability at 24 h, 25 μg/mL turned out to be 96.2 ± 1.1% and the viability at 24 h, 50 μg/mL was 94.8 ± 1.3%. Besides, in data set [2] (dose 25 μg/mL), the NO level was found to be 19.2 ± 0.6 µM. The compound further gave an NO level in data set [2] (dose 50 μg/mL) of 14.3 ± 0.8 µM.
On to `COc1c(C)cc(-c2c(O)c(C)c(OC)c3c2OCO3)c2c1OCO2` [Compound 2, 2-hydroxy-4,4′-dimethoxy-3,3′-dimethyl-5,6,5′,6′-bimethylenedioxybiphenyl], for which, in data set [1], the viability at 24 h, 0.312 μg/mL was 98 ± 1.5%; the viability at 24 h, 0.625 μg/mL stood at 96.6 ± 7.6%; the viability at 24 h, 1.25 μg/mL was 96.6 ± 2.2%; the viability at 24 h, 2.5 μg/mL is 92.7 ± 1.3%. For the same compound, the viability at 24 h, 5 μg/mL in data set [1] was found to be 71.4 ± 2.2%. Also, the NO level in data set [2] (dose 0.312 μg/mL) came to 16.4 ± 2.4 µM. In addition, the NO level in data set [2] (dose 0.625 μg/mL) was 16.1 ± 1.3 µM. Further, the NO level in data set [2] (dose 1.25 μg/mL) worked out at 15.7 ± 2.0 µM. Moreover, in data set [2] (dose 2.5 μg/mL), the NO level amounted to 15.5 ± 1.9 µM.
On to `COc1cc(C)c(OC)c(O)c1OC` [Compound 4, 2,3,6-trimethoxy-5-methylphenol], for which, in data set [1], the viability at 24 h, 0.312 μg/mL came to 97 ± 1.1%; the viability at 24 h, 0.625 μg/mL turned out to be 96.2 ± 2.2%; the viability at 24 h, 1.25 μg/mL was 95 ± 2.1%; the viability at 24 h, 2.5 μg/mL is 94.6 ± 1.6%. The viability at 24 h, 5 μg/mL in data set [1] was found to be 69.3 ± 2.1%. The NO level in data set [2] (dose 0.312 μg/mL) turned out to be 20.6 ± 1.2 µM. The NO level in data set [2] (dose 0.625 μg/mL) was 19.4 ± 2.0 µM. This compound also displayed an NO level in data set [2] (dose 1.25 μg/mL) of 18.3 ± 0.3 µM. Also, the NO level in data set [2] (dose 2.5 μg/mL) is 13.6 ± 0.6 µM.
